According to US20150080438A1, “6,7-Dihydro-5H-benzo[7]annulene derivatives, processes for their preparation, pharmaceutical products comprising them and their use for preparing medicaments” (Bayer Intellectual Property GmbH, priority 2011, published 2015):

The molecules below were run against T1, oestrogen receptor (ER) (Homo sapiens, UniProt P03372) (assay: Anti-oestrogenic action in MVLN cells (inhibition of estradiol-induced luciferase, transactivation antagonism)). Settings: inhibition of estradiol-induced luciferase activity, read-out: Anti-oestrogenic action in vitro: MVLN transactivation antagonism IC50.
T1 construct: These MVLN cells express, along with the functional oestrogen receptor (ER), a reporter construct; endogenous in cells; host or cells: MVLN cells (MCF7 derivative with ER-responsive luciferase reporter)
T1 sequence (P03372 1-595): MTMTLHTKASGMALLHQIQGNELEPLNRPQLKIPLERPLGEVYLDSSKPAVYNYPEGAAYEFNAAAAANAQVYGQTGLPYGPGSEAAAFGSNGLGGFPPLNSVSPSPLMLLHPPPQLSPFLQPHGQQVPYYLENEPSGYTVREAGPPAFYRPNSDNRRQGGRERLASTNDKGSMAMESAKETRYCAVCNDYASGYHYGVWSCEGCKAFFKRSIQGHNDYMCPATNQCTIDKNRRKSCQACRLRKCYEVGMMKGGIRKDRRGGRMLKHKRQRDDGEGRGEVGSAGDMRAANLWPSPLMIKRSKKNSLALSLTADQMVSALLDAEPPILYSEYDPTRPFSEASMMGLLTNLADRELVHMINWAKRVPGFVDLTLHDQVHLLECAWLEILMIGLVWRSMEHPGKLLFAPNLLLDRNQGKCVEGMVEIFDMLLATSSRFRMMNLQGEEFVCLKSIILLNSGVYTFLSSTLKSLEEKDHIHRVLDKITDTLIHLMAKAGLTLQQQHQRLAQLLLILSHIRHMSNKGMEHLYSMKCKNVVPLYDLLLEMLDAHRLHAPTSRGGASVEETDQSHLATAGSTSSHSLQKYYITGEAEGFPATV
Format: cell-based
Text: The anti-oestrogenic action of the claimed pharmacological compounds was investigated in so-called MVLN cells in vitro. MVLN cells are derivatives of the hormone-responsive MCF7 breast cancer cells known by a person skilled in the art. These MVLN cells express, along with the functional oestrogen receptor (ER), a reporter construct, which under ER-activation expresses luciferase. Determination of the activity of the induced luciferase permits a direct conclusion on the oestrogen properties of substances. To investigate the anti-oestrogenic properties of the pharmacological compounds, they were investigated in the presence of oestrogen for their potential for inhibiting the luciferase signal induced by estradiol.
The claimed pharmacological test substances were investigated in MVLN cells for their anti-oestrogenic potential, as described (see Table 2).
With `CN(CCCCCC1=C(c2cccc(O)c2)CCCc2cc(O)ccc21)CCCS(=O)(=O)CCCC(F)(F)C(F)(F)F` [Example 5, 8-(3-Hydroxyphenyl)-9-[5-(methyl{3-[(4,4,5,5,5-pentafluoropentyl)sulphonyl]propyl}amino)pentyl]-6,7-dihydro-5H-benzo[7]annulen-3-ol] the IC50 was 5 nM.
With `CN(CCCCCC1=C(c2cccc(O)c2)CCCc2cc(O)ccc21)CCCCCS(=O)(=O)CCCC(F)(F)C(F)(F)F` [Example 9, 8-(3-Hydroxyphenyl)-9-[5-(methyl{5-[(4,4,5,5,5-pentafluoropentyl)sulphonyl]pentyl}amino)pentyl]-6,7-dihydro-5H-benzo[7]annulen-3-ol] the IC50 was 8 nM.
In the case of `CN(CCCCCCS(=O)(=O)CCCC(F)(F)C(F)(F)F)CCCCCC1=C(c2cccc(O)c2)CCCc2cc(O)ccc21` [Example 11, 8-(3-Hydroxyphenyl)-9-[5-(methyl{6-[(4,4,5,5,5-pentafluoropentyl)sulphonyl]hexyl}amino)pentyl]-6,7-dihydro-5H-benzo[7]annulen-3-ol], the IC50 is reported as 4 nM.
`CN(CCCCCCC1=C(c2cccc(O)c2)CCCc2cc(O)ccc21)CCCCS(=O)(=O)CCCC(F)(F)C(F)(F)F` [Example 15, 8-(3-Hydroxyphenyl)-9-[6-(methyl{4-[(4,4,5,5,5-pentafluoropentyl)sulphonyl]butyl}amino)hexyl]-6,7-dihydro-5H-benzo[7]annulen-3-ol] showed an IC50 of 3 nM.
`CN(CCCCCCC1=C(c2cccc(O)c2)CCCc2cc(O)ccc21)CCCCCS(=O)(=O)CCCC(F)(F)C(F)(F)F` [Example 17, 8-(3-Hydroxyphenyl)-9-[6-(methyl{5-[(4,4,5,5,5-pentafluoropentyl)sulphonyl]pentyl}amino)hexyl]-6,7-dihydro-5H-benzo[7]annulen-3-ol] was tested, and the IC50 was 4 nM.
With `CN(CCCCCCC1=C(c2ccc(C#N)cc2)CCCc2cc(O)ccc21)CCCS(=O)(=O)CCCC(F)(F)C(F)(F)F` [Example 22, 4-{3-Hydroxy-9-[6-(methyl{3-[(4,4,5,5,5-pentafluoropentyl)sulphonyl]propyl}amino)hexyl]-6,7-dihydro-5H-benzo[7]annulen-8-yl}benzonitrile] the IC50 was 17 nM.
`CN(CCCCCC1=C(c2ccc(F)c(O)c2)CCCc2cc(O)ccc21)CCCCS(=O)(=O)CCCC(F)(F)C(F)(F)F` [Example 25, 8-(4-Fluoro-3-hydroxyphenyl)-9-[5-(methyl{4-[(4,4,5,5,5-pentafluoropentyl)sulphonyl]butyl}amino)pentyl]-6,7-dihydro-5H-benzo[7]annulen-3-ol] gave an IC50 of 24 nM.
In the case of `CN(CCCCCCC1=C(c2ccc(F)c(O)c2)CCCc2cc(O)ccc21)CCCCS(=O)(=O)CCCC(F)(F)C(F)(F)F` [Example 31, 8-(4-Fluoro-3-hydroxyphenyl)-9-[6-(methyl{4-[(4,4,5,5,5-pentafluoropentyl)sulphonyl]butyl}amino)hexyl]-6,7-dihydro-5H-benzo[7]annulen-3-ol], the IC50 is reported as 3 nM.
`CN(CCCCCCC1=C(c2ccc(F)c(O)c2)CCCc2cc(O)ccc21)CCCCCS(=O)(=O)CCCC(F)(F)C(F)(F)F` [Example 33, 8-(4-Fluoro-3-hydroxyphenyl)-9-[6-(methyl{5-[(4,4,5,5,5-pentafluoropentyl)sulphonyl]pentyl}amino)hexyl]-6,7-dihydro-5H-benzo[7]annulen-3-ol] was tested, and the IC50 was 6 nM.
`CN(CCCCCCC1=C(c2ccc(F)c(O)c2)CCCc2cc(O)ccc21)CCCCCCS(=O)(=O)CCCC(F)(F)C(F)(F)F` [Example 35, 8-(4-Fluoro-3-hydroxyphenyl)-9-[6-(methyl{6-[(4,4,5,5,5-pentafluoropentyl)sulphonyl]hexyl}amino)hexyl]-6,7-dihydro-5H-benzo[7]annulen-3-ol] was tested, and the IC50 was 11 nM.
Work on `CN(CCCCCC1=C(c2ccc(O)c(F)c2)CCCc2cc(O)ccc21)CCCSCCCC(F)(F)C(F)(F)F` [Example 36, 8-(3-Fluoro-4-hydroxyphenyl)-9-[5-(methyl{3-[(4,4,5,5,5-pentafluoropentyl)sulphanyl]propyl}amino)pentyl]-6,7-dihydro-5H-benzo[7]annulen-3-ol] yielded an IC50 of 3 nM.
Work on `CN(CCCCCC1=C(c2cccnc2)CCCc2cc(O)ccc21)CCCSCCCC(F)(F)C(F)(F)F` [Example 39, 9-[5-(Methyl{3-[(4,4,5,5,5-pentafluoropentyl)sulphanyl]propyl}amino)pentyl]-8-(3-pyridyl)-6,7-dihydro-5H-benzo[7]annulen-3-ol] yielded an IC50 of 146 nM.
`CN(CCCCCC1=C(c2cccnc2)CCCc2cc(O)ccc21)CCCS(=O)(=O)CCCC(F)(F)C(F)(F)F` [Example 41, 9-[5-(Methyl{3-[(4,4,5,5,5-pentafluoropentyl)sulphonyl]propyl}amino)pentyl]-8-(3-pyridyl)-6,7-dihydro-5H-benzo[7]annulen-3-ol] gave an IC50 of 110 nM.
`CN(CCCCCCC1=C(c2cccnc2)CCCc2cc(O)ccc21)CCCSCCCC(F)(F)C(F)(F)F` [Example 42, 9-[6-(Methyl{3-[(4,4,5,5,5-pentafluoropentyl)sulphanyl]propyl}amino)hexyl]-8-(3-pyridyl)-6,7-dihydro-5H-benzo[7]annulen-3-ol] showed an IC50 of 7 nM.
Molecule `CN(CCCCCC1=C(c2ccc(S(C)(=O)=O)cc2)CCCc2cc(O)ccc21)CCCSCCCC(F)(F)C(F)(F)F` [Example 45, 8-(4-Mesylphenyl)-9-[5-(methyl{3-[(4,4,5,5,5-pentafluoropentyl)sulphanyl]propyl}amino)pentyl]-6,7-dihydro-5H-benzo[7]annulen-3-ol] has an IC50 of 65 nM.
With `CN(CCCCCC1=C(c2ccc(S(C)(=O)=O)cc2)CCCc2cc(O)ccc21)CCCS(=O)(=O)CCCC(F)(F)C(F)(F)F` [Example 47, 8-(4-Mesylphenyl)-9-[5-(methyl{3-[(4,4,5,5,5-pentafluoropentyl)sulphonyl]propyl}amino)pentyl]-6,7-dihydro-5H-benzo[7]annulen-3-ol] the IC50 was 34 nM.
In the case of `CN(CCCCCCC1=C(c2cccc(O)c2)CCCc2cc(O)ccc21)CCCCS(=O)(=O)CCCC(F)(F)F` [Example 52, 8-(3-Hydroxyphenyl)-9-[6-(methyl{4-[(4,4,4-trifluorobutyl)sulphonyl]butyl}amino)hexyl]-6,7-dihydro-5H-benzo[7]annulen-3-ol], the IC50 is reported as 1 nM.
With `CN(CCCCCCC1=C(c2cccc(O)c2)CCCc2cc(O)ccc21)CCCS(=O)(=O)CCC(F)(F)C(F)(F)F` [Example 54, 8-(3-Hydroxyphenyl)-9-[6-(methyl{3-[(3,3,4,4,4-pentafluorobutyl)sulphonyl]propyl}amino)hexyl]-6,7-dihydro-5H-benzo[7]annulen-3-ol] the IC50 was 2 nM.
`CN(CCCCCCC1=C(c2ccccc2)CCCc2cc(O)ccc21)CCCS(=O)(=O)CCCC(F)(F)F` [Example 57, 9-[6-(Methyl{3-[(4,4,4-trifluorobutyl)sulphonyl]propyl}amino)hexyl]-8-phenyl-6,7-dihydro-5H-benzo[7]annulen-3-ol] gave an IC50 of 5 nM.
With `CN(CCCCCCC1=C(c2ccccc2)CCCc2cc(O)ccc21)CCCS(=O)(=O)CCC(F)(F)F` [Example 60, 9-[6-(Methyl{3-[(3,3,3-trifluoropropyl)sulphonyl]propyl}amino)hexyl]-8-phenyl-6,7-dihydro-5H-benzo[7]annulen-3-ol] the IC50 was 26 nM.
`CN(CCCCCCC1=C(c2ccccc2)CCCc2cc(O)ccc21)CCCS(=O)(=O)CCC(F)(F)C(F)(F)F` [Example 62, 9-[6-(Methyl{3-[(3,3,4,4,4-pentafluorobutyl)sulphonyl]propyl}amino)hexyl]-8-phenyl-6,7-dihydro-5H-benzo[7]annulen-3-ol] was tested, and the IC50 was 12 nM.
With `CN(CCCCCCC1=C(c2ccccc2)CCCc2cc(O)ccc21)CCCS(=O)(=O)CCCC(F)(F)C(F)(F)F` [Example 63, 9-[6-(Methyl{3-[(4,4,5,5,5-pentafluoropentyl)sulphonyl]propyl}amino)hexyl]-8-phenyl-6,7-dihydro-5H-benzo[7]annulen-3-ol] the IC50 was 9 nM.
`CCN(CCCCCCC1=C(c2cccc(O)c2)CCCc2cc(O)ccc21)CCCS(=O)(=O)CCC(F)(F)F` [Example 65, 9-[6-(Ethyl{3-[(3,3,3-trifluoropropyl)sulphonyl]propyl}amino)hexyl]-8-(3-hydroxyphenyl)-6,7-dihydro-5H-benzo[7]annulen-3-ol] gave an IC50 of 6 nM.
Work on `CN(CCCCCCC1=C(c2ccccc2)CCCc2cc(O)ccc21)CCCCS(=O)(=O)CCCC(F)(F)C(F)(F)F` [Example 67, 9-[6-(Methyl{4-[(4,4,5,5,5-pentafluoropentyl)sulphonyl]butyl}amino)hexyl]-8-phenyl-6,7-dihydro-5H-benzo[7]annulen-3-ol] yielded an IC50 of 3 nM.
`CCN(CCCCCCC1=C(c2ccccc2)CCCc2cc(O)ccc21)CCCS(=O)(=O)CCCC(F)(F)C(F)(F)F` [Example 69, 9-[6-(Ethyl{3-[(4,4,5,5,5-pentafluoropentyl)sulphonyl]propyl}amino)hexyl]-8-phenyl-6,7-dihydro-5H-benzo[7]annulen-3-ol] gave an IC50 of 6 nM.
